How the values were obtained:
[1] = system: p21^CIP1/WAF1, p27^KIP1, pCdk2; assay: Immunoblot of p21CIP1/WAF1, p27KIP1 and phosphorylated Cdk2 in Hs578T cells; format: cell-based, human
Method: (§1) The concentration of stearate used to treat the Hs578T cells was 50 μM. When EGF was used, the concentration was 1 nM EGF. Before the treatment with stearate or EGF, cells were first starved for 24-48 hours. Stearate was loaded onto fatty acid-free bovine serum albumin (BSA) according to the method reported by Spector et al. (13); briefly, stearate (0.5 g) was dissolved in chloroform (100 ml) and mixed well with 10 g diatomaceous earth in a 1 liter flask. The mixture was stirred and dried under nitrogen until powder. BSA is a physiological carrier of fatty acids and was used to avoid the introduction of organic solvents to solutions coming into contact with cells. Fatty acid-free BSA (1 g) was dissolved in 100 ml with Dulbecco's modified Eagle's medium without phenol red and mixed with 3 g of the stearate/diatomaceous earth mixture with stirring for 45 min. The stearate/BSA solution was filtered through a 0.45 μm filter, and adjusted to pH 7.4. The concentration of stearate in the solution was detected with the NEFA C Kit from Wako Chemicals GmbH (Neuss, Germany). All experimental data on Hs578T cells were controlled using fatty acid-free BSA control solutions that were put through the same preparatory procedure described for the stearate/BSA solution except for the fact that no fatty acid was added.
Cells were treated as described above, and lysed with lysis buffer. The supernatants of the lysates or the immunoprecipitates were loaded with Laemmli sample buffer on 10% sodium dodecyl sulfate-polyacrylamide gel electrophoresis gels after boiling at 100° C. for 5 min. Proteins were then transferred to a polyvinylidene difluoride membrane. The membranes were blocked overnight at 4° C. with blocking buffer containing 5% non-fat dried milk powder in Tris-buffered saline-T (25 mM Tris, 140 mM NaCl, 2.7 mM KCl, 0.05% Tween-20, pH 8.0), incubated with primary antibody in blocking buffer at room temperature for 1 hour and incubated with antirabbit or antimouse antibodies labeled with horseradish peroxidase (1:5000) in blocking buffer under the same conditions, and then washed three times for 10 min in Tris-buffered saline-T. The polyvinylidene difluoride membranes were washed and developed using enhanced chemiluminescence reagents.

ERK = assay: Immunoblot of phosphorylated ERK in Hs578T cells; format: cell-based, human; settings: PD98059 added to Hs578T cells
Method: as §1
Cells were treated as described above, and lysed with lysis buffer. […]

[2] = system: differentiated 3T3L1 adipocytes; assay: Necrosis and apoptosis of differentiated 3T3L1 adipocytes (trypan blue, LDH, flow cytometry); format: cell-based, mouse; settings: 50 μM
Method: 3T3L1 mouse fibroblast cells (ATCC, CL-173™) were maintained according to the manufacture's protocol, in Dulbecco's modified eagle's medium (DMEM) containing 10% Fetal Bovine Serum and antibiotics (M1 medium). Adipocyte differentiation was performed according to standard procedures (42). Briefly, the 3T3L1 fibroblasts were seeded at 30% confluence and allowed to grow to near 100% confluence. On the day after reaching maximum confluence, conversion was induced by replacing the M1 medium with M1 medium containing insulin (5 μg/ml), dexamethasone (0.25 μM), and 3-isobutyl-1-methyl-xanthine (0.5 mM). After 2 days, the cells were changed to M1 medium with insulin (5 μg/ml) for an additional 2 days. Thereafter, the cells were maintained in M1 medium without additives for 2 days.
(§2) 50 μM of stearate, oleate or linoleate was used to treat 3T3L1 cells as this concentration is centered within the normal range for non-esterified stearate in the plasma of humans. Stearate, oleate, or linoleate was loaded onto fatty acid free BSA according to the method reported by Spector and Hoak (Spector and Hoak, 1969). Briefly, stearate (0.5 g) was dissolved in chloroform (100 mL) and mixed well with 10 g diatomaceous earth in a 1 liter flask. The mixture was stirred and dried under nitrogen until powder. Fatty acid free BSA (1 g) was dissolved in 100 mL with DMEM without phenol red and mixed with 3 g of the stearate/diatomaceous earth mixture and stirred for 30 minutes. The stearate/BSA solution was filtered through a 0.45 μm filter, and adjusted to pH 7.4. The concentration of stearate in the solution was detected by use of a NEFA C kit. Oleic and linoleate were loaded in the same way. […] Before the treatment with fatty acid, 3T3L1 preadipocytes were grown to 100%, and were starved in 2% FBS medium for 24 hours.
(§3) After treatment, 3T3L1 cells were harvested, washed with cold PBS, and then resuspended in 100 μl annexin-binding buffer (50 mM HEPES, 700 mM NaCl, 12.5 mM CaCl2, pH 7.4). Cell density was determined, and the cells were diluted to 10^6 cells. Then 5μL of Alex Fluo 488 annexin V and 1 μL propidium iodide (PI) were added. Cells were gently oscillated and incubated for 15 min at room temperature. After adding 400 μL of binding buffer to each tube, cells were kept on ice and analyzed by flow cytometry within 1 hour. Cells that stained positive for Alex Fluo 488 annexin V and negative for PI were considered to be apoptotic. Cells that stained positive for both Alex Fluo 488 annexin V and PI were considered either in the end stage of apoptosis, or necrosis. Cells that stained negative for both Alex Fluo 488 annexin V and PI were considered alive and not undergoing measurable apoptosis. A BD LSR II flow cytometer from Becton Dickinson was used in all flow experiments and the data were analyzed with BD FACSDiva™ software V.6.1.3.
(§4) Lactate dehydrogenase (LDH) release was measured using a cytotoxicity detection kit, according to the manufacture's protocol. After 3T3L1 cells were treated, 1 ml of cell culture medium was removed and centrifuged. The supernatant was retained for assaying. For determinations, 100 μl of LDH assay reagent was added to 100 μl of supernatant and incubated for 30 min at room temperature in the dark. Absorbance was measured at 490 nm. Background release from culture medium alone was subtracted before reporting. Maximum release was measured after adding 2% Triton X-100 to untreated cells.
(§5) After treatment, 3T3L1 cells were harvested and stained with 0.4% trypan blue solution. Cells in the four corners of the grid were counted under a conventional bright field binocular microscope.

3T3L1 preadipocytes = assay: Cell death and apoptosis of 3T3L1 preadipocytes (trypan blue, LDH, flow cytometry); format: cell-based, mouse; settings: 50 μM, vs control; for Percentage of dead cells (trypan blue): 48 hour treatment; for Dead cells (flow cytometry): 48 hours; for Cytotoxicity (lactate dehydrogenase): after 24 hours
Method: as §2, §3, §4, §5

[3] = system: visceral adipocytes from ApoE knockout mice; assay: Expression of cIAP2, Bcl-2 and Bax in visceral adipocyte cultures; format: cell-based; settings: 50 μM fatty acid; vs no additional fatty acid
Method: It was hypothesized that stearate induces apoptosis in visceral adipocytes by at least one of the following mechanisms: inhibition of cIAP2, activation of Bcl-2, and activation of BAX. […] Six cultures were exposed to each fatty acid or no fatty acid. The expression of cIAP2, Bcl-2, and Bax was measured in each culture. […] By decreasing levels of the cIAP2 and/or Bcl-2 polypeptides and increasing expression of the Bax polypeptide, stearate administration may lead to an increase in cellular apoptotic activity (such as but not limited to the visceral fat tissues). Without wishing to be bound by any given hypothetical model, it is proposed that this reduction in cIAP2 expression and this increase in Bax expression (independently or in combination) is responsible for the relative decrease in visceral fat tissue that is observed when animals are given a diet that is high in stearate.

[4] = PD98059 in stearate-treated cells

| SMILES | Stearate-induced upregulation of p21^CIP1/WAF1 ([1]; PD98059 added following stearate and EGF treatment) | Stearate-induced decrease in pCdk2 [1, 4] | Stearate-induced increases in p27^KIP1 [1, 4] | ERK phosphorylation induced by stearate and EGF (ERK) | Cytotoxicity (lactate dehydrogenase in medium) [2] | Percentage of apoptotic cells (flow cytometry) [2] | Percentage of dead cells (flow cytometry) [2] | Percentage of dead cells (trypan blue) [2] | Percentage of dead cells (trypan blue) (3T3L1 preadipocytes) | Dead cells (flow cytometry) (3T3L1 preadipocytes) | Cytotoxicity (lactate dehydrogenase) (3T3L1 preadipocytes) | Apoptotic cells (flow cytometry) (3T3L1 preadipocytes) | Expression of Bax [3] | Expression of cIAP2 [3] |
| --- | --- | --- | --- | --- | --- | --- | --- | --- | --- | --- | --- | --- | --- | --- |
| COc1cccc(-c2cc(=O)c3ccccc3o2)c1N [PD98059, 2′-amino-3′-methoxyflavone, reference compound] | reverses | only partially reversed | did not reverse | blocked | – | – | – | – | – | – | – | – | – | – |
| CCCCC/C=C\C/C=C\CCCCCCCC(=O)O [linoleate, linoleic acid] | – | – | – | – | no significant changes | no significant changes | no significant changes | no significant changes | no significant changes | no significant effects | did not change significantly | No significant changes | increased the expression of Bax to a lesser extent | no statistically significant effect |
| CCCCCCCC/C=C\CCCCCCCC(=O)O [oleate, oleic acid] | – | – | – | – | no significant changes | no significant changes | no significant changes | no significant changes | no significant changes | significantly decreased | significantly decreased | decreased | – | – |

Reference: US20140357706A1, “Stearate Compounds” (THE UAB RESEARCH FOUNDATION, priority 2011, published 2014)
